Data: US5274076A, “Hydrophilic derivatives, their application to diagnosis and to therapeutics, diagnostic or therapeutic kits and immunological reagents” (Immunotech Partners, priority 1989, dated 1993)
Residues, ends and D or L forms follow the SMILES beside them. Groups on a side chain read outwards from the residue. *: point of attachment. DTPA = O=C(O)CN(CCN(CC(=O)O)CC(=O)O)CCN(CC(=O)O)CC(=O)*

How the values were obtained:
[1] = tested on: human melanoma cells (A375); assay: Comparison of indium-111-labelled probes in the labelling of tumours in mice (tumour/organ contrast); type: in vivo, nude mice; conditions: for Contrast cpm/g in the tumour/cpm/g in the organ: Heart / Contrast cpm/g in the tumour/cpm/g in the organ: Kidneys / Contrast cpm/g in the tumour/cpm/g in the organ: Liver / Contrast cpm/g in the tumour/cpm/g in the organ: Lung / Contrast cpm/g in the tumour/cpm/g in the organ: Plasma / Contrast cpm/g in the tumour/cpm/g in the organ: Spleen: 3 hours after injection of the radiolabelled probe
Procedure: (§1) 3.10^6 human melanoma cells (A375) are injected subcutaneously into the abdomen of nude mice. 3 to 4 weeks later the mice develop tumours of 0.5 to 2 g. The mice are then injected with 2 to 10 μg of dual specificity conjugate prepared by chemical coupling of the F(ab)'2 fragment of a […] anti-melanoma antibody (mouse monoclonal antibody IgG1, kappa) to the reduced F(ab)'2 fragment of an anti-DTPA-indium antibody (mouse monoclonal antibody IgG1, lambda) using the heterobifunctional reagent EMCS.
(§2) Twenty four hours later, mice are injected with 10 μCi of the derivative of Example 1 labelled with indium-111. Images are then produced at selected time intervals using a Sopha Medical Gammatome 2 gamma camera equipped with a medium energy high-resolution collimator or the animals are killed and the major organs and the tumour are measured for radioactivity associated with indium-111 using a gamma counter.
Comparison between compound 1 labelled with indium-111 and di-(DNP-lys)-DTPA in the labelling of tumours in mice.
Experiments are carried out as in Example 5 but the mice are given indium-111-labelled di-(DNP-lys)-DTPA (derivative 1 of French Patent Application 86.13146) instead of the derivative 1 described above. Three hours after injection of the probe, the mice are dissected and the gamma radioactivity of the major organs and tumour is counted. It is observed that the tumour accumulates a dose of radioactivity equivalent to that Obtained with the two compounds of Example 1 of the present invention. However, the elimination of the excess radioactivity is substantially more rapid with the compounds of the present invention, as shown by the following table: […]

[2] = Tolerance to probes in animals; type: in vivo, BALB/c mice; conditions: 10 nanomoles, observed 16 days; compounds 1 and 2 complexed with non-radioactive indium
Procedure: Doses corresponding to 10 nanomoles, i.e. about 10,000 times more than the dose required for radioimmunoscintigraphy, of compounds 1 and 2 previously complexed with non-radioactive indium and compound 3 are administered to BALB/c mice. These mice are then observed for 16 days under normal breeding conditions.

[3] = tested on: human melanoma cells (A375); assay: Radioimmunoscintigraphy and organ radioactivity counting of human melanoma grafted on nude mice, pretargeted with anti-melanoma anti-DTPA-indium dual specificity conjugate; type: in vivo; conditions: for specificity of tumour binding: A375 tumour in nude mice
Procedure: Radioimmunoscintigraphy of human melanoma grafted on to nude mice with anti-melanoma anti-DTPA indium dual specificity conjugates and N-α-DTPA-tyrosyl-N-ε-DTPA-lysine labelled with indium 111.
as §1, §2

[4] = indium-111 labelled, after dual specificity conjugate
[5] = radioactivity measured after 24 hours

Row | Compound | Contrast cpm/g in the tumour/cpm/g in the organ: Heart [1] | Contrast cpm/g in the tumour/cpm/g in the organ: Kidneys [1] | Contrast cpm/g in the tumour/cpm/g in the organ: Liver [1] | Contrast cpm/g in the tumour/cpm/g in the organ: Lung [1] | Contrast cpm/g in the tumour/cpm/g in the organ: Plasma [1] | Contrast cpm/g in the tumour/cpm/g in the organ: Spleen [1] | signs of toxicity [2] | weight gain versus control animals [2] | specificity of tumour binding [3] | other results
1 | O=C(O)CN(CCN(CC(=O)O)CC(=O)O)CCN(CC(=O)O)CC(=O)NCCCC[C@H](NC(=O)[C@H](Cc1ccc(O)cc1)NC(=O)CN(CCN(CCN(CC(=O)O)CC(=O)O)CC(=O)O)CC(=O)O)C(=O)O [Example 1, N-α-DTPA-tyrosyl-N-ε-DTPA-lysine] ({DTPA}-Tyr-Lys(DTPA)-OH) | 14.9 | 3.5 | 10.8 | 8.2 | 1.7 | 12.7 | No sign of toxicity | not significantly different | specific | tumour accumulation of radioactivity without dual specificity conjugate or with conjugate specific for another tumour antigen ([3]; control without or with irrelevant conjugate): did not accumulate significant amounts of radioactivity; time after injection at which tumours can be observed on gamma camera images ([3]; indium-111 labelled, 10 μCi, 24 h after dual specificity conjugate): Only a few minutes; non-specific accumulation of radioactivity [3, 4]: essentially limited to the kidneys; time in which a large majority of the circulating radioactivity is eliminated [3, 4]: less than 24 hours; time in which radioactivity bound to the tumour is established [3, 4]: within a few hours; time radioactivity bound to the tumour remains stable [3, 4]: at least two days; tumour/organ ratio (T/O), all organs except the kidneys [3, 5]: > 3; tumour/organ ratio (T/O), kidneys [3, 5]: 0.7
2 | O=C(O)CN(CCN(CC(=O)O)CC(=O)O)CCN(CC(=O)O)CC(=O)NCC(=O)NCCCC[C@H](NC(=O)CNC(=O)CN(CCN(CCN(CC(=O)O)CC(=O)O)CC(=O)O)CC(=O)O)C(=O)N[C@@H](Cc1ccc(O)cc1)C(=O)O [Example 2, N-α-N-ε-di-(DTPA-glycyl)-lysyl-tyrosine] ({DTPA}-Gly-Lys([Gly-DTPA])-Tyr-OH) |  |  |  |  |  |  | No sign of toxicity | not significantly different |  | 
3 | O=C(CCC(=O)NCC(=O)NCCCC[C@H](NC(=O)CNC(=O)CCC(=O)NCCc1cnc[nH]1)C(=O)N[C@@H](Cc1ccc(O)cc1)C(=O)O)NCCc1cnc[nH]1 [Example 3, N-α-N-ε-di-(histamine-succinyl-glycyl)-lysyl-tyrosine] |  |  |  |  |  |  | No sign of toxicity | not significantly different |  | 
4 | DTPA [indium-111-labelled DTPA, reference compound] |  |  |  |  |  |  |  |  | little specific binding is observed | elimination/excretion of radioactivity ([3]; mouse, in vivo): excreted very rapidly
5 | di-(DNP-lys)-DTPA [derivative of the prior art] | 2.1 | 1.0 | 1.3 | 0.9 | 0.2 | 1.8 |  |  |  | dose of radioactivity accumulated by the tumour compared with Example 1 ([1]; 3 hours after injection, indium-111 labelled): equivalent
